In patent US10995101B2, “2-oxo-thiazole derivatives as A2A inhibitors and compounds for use in the treatment of cancers” (iTeos Therapeutics SA, priority 2017, dated 2021):

Legend:
[1] = in vitro; details: human, Caco-2, pH 7.4
[2] = target: A2A receptor (Homo sapiens, UniProt P29274); assay: Inhibition of cAMP production in HEK cells; format: cell-based; details: HEK-293 cells with A2A receptor
[3] = IC50 (nM) (3 nM NECA as agonist, 0.1% BSA), 3 nM NECA as agonist, 0.1% BSA
[4] = IC50 (nM) (5 μM Adenosine as agonist, 2.0% HSA), 5 μM Adenosine as agonist, 2.0% HSA
[5] = IC50 (nM) (5 nM NECA as agonist, 2% HSA), 5 nM NECA as agonist, 2% HSA

A2A receptor, sequence (P29274 whole entry): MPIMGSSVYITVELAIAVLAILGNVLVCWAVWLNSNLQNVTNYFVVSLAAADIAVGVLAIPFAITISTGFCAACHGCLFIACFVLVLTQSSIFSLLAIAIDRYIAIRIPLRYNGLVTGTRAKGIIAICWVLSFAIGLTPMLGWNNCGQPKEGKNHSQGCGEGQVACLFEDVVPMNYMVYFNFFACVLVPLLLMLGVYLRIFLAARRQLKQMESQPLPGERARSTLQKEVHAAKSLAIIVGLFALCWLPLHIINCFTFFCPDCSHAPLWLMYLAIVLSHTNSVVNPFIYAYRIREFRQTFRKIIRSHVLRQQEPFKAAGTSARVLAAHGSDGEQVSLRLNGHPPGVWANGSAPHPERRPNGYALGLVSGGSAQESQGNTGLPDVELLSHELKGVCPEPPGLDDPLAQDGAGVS

Nc1nc2c(sc(=O)n2CCN2CCN(c3ccc(C(=O)N4CC[S+]([O-])CC4)cc3F)CC2)c2nc(-c3ccco3)nn12 [Compound 125, 5-amino-3-(2-(4-(2-fluoro-4-(1-oxidothiomorpholine-4-carbonyl)phenyl)piperazin-1-yl)ethyl)-8-(furan-2-yl)thiazolo[5,4-e][1,2,4]triazolo[1,5-c]pyrimidin-2(3H)-one]
efflux ratio at 120 min, 2 μM [1]: 127
IC50 [2, 3]: 2.6 nM
IC50 [2, 4]: 3620 nM

Nc1nc2c(sc(=O)n2CCN2CCN(c3ccc(OCC4CCNCC4)cc3F)CC2)c2nc(-c3ccco3)nn12 [Compound 25, 5-amino-3-(2-(4-(2-fluoro-4-(piperidin-4-ylmethoxy)phenyl)piperazin-1-yl)ethyl)-8-(furan-2-yl)thiazolo[5,4-e][1,2,4]triazolo[1,5-c]pyrimidin-2(3H)-one]
efflux ratio at 120 min, 2 μM [1]: 472
IC50 [2, 3]: 1.2 nM
IC50 [2, 5]: 6 nM
IC50 [2, 4]: 300 nM

CC(C)[C@H](N)C(=O)NCCOc1ccc(N2CCN(CCn3c(=O)sc4c3nc(N)n3nc(-c5ccco5)nc43)CC2)c(F)c1 [Compound 72, (S)-2-amino-N-(2-(4-(4-(2-(5-amino-8-(furan-2-yl)-2-oxothiazolo[5,4-e][1,2,4]triazolo[1,5-c]pyrimidin-3(2H)-yl)ethyl)piperazin-1-yl)-3-fluorophenoxy)ethyl)-3-methylbutanamide]
efflux ratio at 120 min, 2 μM [1]: 21
IC50 [2, 3]: 1 nM
IC50 [2, 5]: 3 nM
IC50 [2, 4]: 86 nM

NCCNC(=O)COc1ccc(N2CCN(CCn3c(=O)sc4c3nc(N)n3nc(-c5ccco5)nc43)CC2)c(F)c1 [Compound 52, 2-(4-(4-(2-(5-amino-8-(furan-2-yl)-2-oxothiazolo[5,4-e][1,2,4]triazolo[1,5-c]pyrimidin-3(2H)-yl)ethyl)piperazin-1-yl)-3-fluorophenoxy)-N-(2-aminoethyl)acetamide]
efflux ratio at 120 min, 2 μM [1]: 34
IC50 [2, 3]: 0.3 nM
IC50 [2, 5]: 1 nM
IC50 [2, 4]: 26 nM

Nc1nc2c(sc(=O)n2CCN2CCN(c3ccc(OCCO)cc3)CC2)c2nc(-c3ccco3)nn12 [Compound 9, 5-amino-8-(furan-2-yl)-3-(2-(4-(4-(2-hydroxyethoxy)phenyl)piperazin-1-yl)ethyl)thiazolo[5,4-e][1,2,4]triazolo[1,5-c]pyrimidin-2(3H)-one]
efflux ratio at 120 min, 2 μM [1]: 8
IC50 [2, 3]: 3.4 nM

C[S@@+]([O-])CCNC(=O)c1ccc(N2CCN(CCn3c(=O)sc4c3nc(N)n3nc(-c5ccco5)nc43)CC2)c(F)c1 [Compound 124, (R)-4-(4-(2-(5-amino-8-(furan-2-yl)-2-oxothiazolo[5,4-e][1,2,4]triazolo[1,5-c]pyrimidin-3(2H)-yl)ethyl)piperazin-1-yl)-3-fluoro-N-(2-(methylsulfinyl)ethyl)benzamide]
efflux ratio at 120 min, 2 μM [1]: 54
IC50 [2, 3]: 2.3 nM
IC50 [2, 4]: 2040 nM

Nc1nc2c(sc(=O)n2CCN2CCN(c3ccc(OC4CCNCC4)cc3F)CC2)c2nc(-c3ccco3)nn12 [Compound 47, 5-amino-3-(2-(4-(2-fluoro-4-(piperidin-4-yloxy)phenyl)piperazin-1-yl)ethyl)-8-(furan-2-yl)thiazolo[5,4-e][1,2,4]triazolo[1,5-c]pyrimidin-2(3H)-one]
efflux ratio at 120 min, 2 μM [1]: 329
IC50 [2, 3]: 1.8 nM
IC50 [2, 5]: 1 nM
IC50 [2, 4]: 43 nM

Nc1nc2c(sc(=O)n2CCN2CCN(c3cc(O[C@H]4CC[S@@+]([O-])CC4)c(F)cc3F)CC2)c2nc(-c3ccco3)nn12 [Compound 111, 5-amino-3-(2-(4-(2,4-difluoro-5-(((1s,4s)-1-oxidotetrahydro-2H-thiopyran-4-yl)oxy)phenyl)piperazin-1-yl)ethyl)-8-(furan-2-yl)thiazolo[5,4-e][1,2,4]triazolo[1,5-c]pyrimidin-2(3H)-one]
efflux ratio at 120 min, 2 μM [1]: 583
IC50 [2, 3]: 0.6 nM
IC50 [2, 4]: 91 nM

Nc1nc2c(sc(=O)n2CCN2CCN(c3ccc(O[C@@H]4CNC[C@H]4F)cc3F)CC2)c2nc(-c3ccco3)nn12 [Compound 101, 5-amino-3-(2-(4-(2-fluoro-4-(((3R,4R)-4-fluoropyrrolidin-3-yl)oxy)phenyl)piperazin-1-yl)ethyl)-8-(furan-2-yl)thiazolo[5,4-e][1,2,4]triazolo[1,5-c]pyrimidin-2(3H)-one]
efflux ratio at 120 min, 2 μM [1]: 81
IC50 [2, 3]: 0.7 nM
IC50 [2, 4]: 124 nM

Nc1nc2c(sc(=O)n2CCN2CCN(c3ccc(C(=O)NCC4COCCN4)cc3F)CC2)c2nc(-c3ccco3)nn12 (stereo not drawn) [Compound 107, 4-(4-(2-(5-amino-8-(furan-2-yl)-2-oxothiazolo[5,4-e][1,2,4]triazolo[1,5-c]pyrimidin-3(2H)-yl)ethyl)piperazin-1-yl)-3-fluoro-N-(morpholin-3-ylmethyl)benzamide]
efflux ratio at 120 min, 2 μM [1]: 680
IC50 [2, 3]: 0.1 nM
IC50 [2, 4]: 35 nM

Nc1nc2c(sc(=O)n2CCN2CCN(c3cc(O[C@@H]4CNC[C@H]4F)c(F)cc3F)CC2)c2nc(-c3ccco3)nn12 (stereo in doubt) [Compound 91, 5-amino-3-(2-(4-(2,4-difluoro-5-(((3R,4R)-4-fluoropyrrolidin-3-yl)oxy)phenyl)piperazin-1-yl)ethyl)-8-(furan-2-yl)thiazolo[5,4-e][1,2,4]triazolo[1,5-c]pyrimidin-2(3H)-one]
efflux ratio at 120 min, 2 μM [1]: 195
IC50 [2, 3]: 0.8 nM
IC50 [2, 4]: 168 nM

Nc1nc2c(sc(=O)n2CCN2CCN(c3ccc(N4CC[S+]([O-])CC4)cc3F)CC2)c2nc(-c3ccco3)nn12 [Compound 126, 5-amino-3-(2-(4-(2-fluoro-4-(1-oxidothiomorpholino)phenyl)piperazin-1-yl)ethyl)-8-(furan-2-yl)thiazolo[5,4-e][1,2,4]triazolo[1,5-c]pyrimidin-2(3H)-one]
efflux ratio at 120 min, 2 μM [1]: 83
IC50 [2, 3]: 0.6 nM
IC50 [2, 4]: 78 nM

Nc1nc2c(sc(=O)n2CCN2CCN(c3cc(C(=O)NCC4COCCN4)c(F)cc3F)CC2)c2nc(-c3ccco3)nn12 (stereo not drawn) [Compound 98, 5-(4-(2-(5-amino-8-(furan-2-yl)-2-oxothiazolo[5,4-e][1,2,4]triazolo[1,5-c]pyrimidin-3(2H)-yl)ethyl)piperazin-1-yl)-2,4-difluoro-N-(morpholin-3-ylmethyl)benzamide]
efflux ratio at 120 min, 2 μM [1]: 53
IC50 [2, 3]: 0.1 nM
IC50 [2, 4]: 7 nM

NCCNC(=O)c1ccc(N2CCN(CCn3c(=O)sc4c3nc(N)n3nc(-c5ccco5)nc43)CC2)c(F)c1 [Compound 30, 4-(4-(2-(5-amino-8-(furan-2-yl)-2-oxothiazolo[5,4-e][1,2,4]triazolo[1,5-c]pyrimidin-3(2H)-yl)ethyl)piperazin-1-yl)-N-(2-aminoethyl)-3-fluorobenzamide]
efflux ratio at 120 min, 2 μM [1]: 3
IC50 [2, 3]: 0.4 nM
IC50 [2, 5]: 1 nM
IC50 [2, 4]: 42 nM

C[S@@+]([O-])CCOc1ccc(N2CCN(CCn3c(=O)sc4c3nc(N)n3nc(-c5ccco5)nc43)CC2)c(F)c1 (single isomer, unassigned) [Compound 6]
efflux ratio at 120 min, 2 μM [1]: 59
IC50 [2, 3]: 0.5 nM
IC50 [2, 5]: 8 nM
IC50 [2, 4]: 179 nM

Nc1nc2c(sc(=O)n2CCN2CCN(c3cc(OCC4CNCCO4)c(F)cc3F)CC2)c2nc(-c3ccco3)nn12 (stereo not drawn) [Compound 89, 5-amino-3-(2-(4-(2,4-difluoro-5-(morpholin-2-ylmethoxy)phenyl)piperazin-1-yl)ethyl)-8-(furan-2-yl)thiazolo[5,4-e][1,2,4]triazolo[1,5-c]pyrimidin-2(3H)-one]
efflux ratio at 120 min, 2 μM [1]: 456
IC50 [2, 3]: 0.6 nM
IC50 [2, 4]: 9 nM

Nc1nc2c(sc(=O)n2CCN2CCN(c3ccc(OCC4CNCCO4)cc3F)CC2)c2nc(-c3ccco3)nn12 (stereo not drawn) [Compound 100, 5-amino-3-(2-(4-(2-fluoro-4-(morpholin-2-ylmethoxy)phenyl)piperazin-1-yl)ethyl)-8-(furan-2-yl)thiazolo[5,4-e][1,2,4]triazolo[1,5-c]pyrimidin-2(3H)-one]
efflux ratio at 120 min, 2 μM [1]: 66
IC50 [2, 3]: 0.1 nM
IC50 [2, 4]: 10 nM

Nc1nc2c(sc(=O)n2CCN2CCN(c3ccc(OC4CNC4)cc3)CC2)c2nc(-c3ccco3)nn12 [Compound 108, 5-amino-3-(2-(4-(4-(azetidin-3-yloxy)phenyl)piperazin-1-yl)ethyl)-8-(furan-2-yl)thiazolo[5,4-e][1,2,4]triazolo[1,5-c]pyrimidin-2(3H)-one]
efflux ratio at 120 min, 2 μM [1]: 191
IC50 [2, 3]: 0.7 nM
IC50 [2, 4]: 172 nM

Nc1nc2c(sc(=O)n2CCN2CCN(c3ccc(O[C@H]4CNC[C@@H]4F)cc3F)CC2)c2nc(-c3ccco3)nn12 [Compound 102, 5-amino-3-(2-(4-(2-fluoro-4-(((3S,4S)-4-fluoropyrrolidin-3-yl)oxy)phenyl)piperazin-1-yl)ethyl)-8-(furan-2-yl)thiazolo[5,4-e][1,2,4]triazolo[1,5-c]pyrimidin-2(3H)-one]
efflux ratio at 120 min, 2 μM [1]: 91
IC50 [2, 3]: 0.7 nM
IC50 [2, 4]: 185 nM

CNCCNC(=O)COc1cc(N2CCN(CCn3c(=O)sc4c3nc(N)n3nc(-c5ccco5)nc43)CC2)c(F)cc1F [Compound 62, 2-(5-(4-(2-(5-amino-8-(furan-2-yl)-2-oxothiazolo[5,4-e][1,2,4]triazolo[1,5-c]pyrimidin-3(2H)-yl)ethyl)piperazin-1-yl)-2,4-difluorophenoxy)-N-(2-(methylamino)ethyl)acetamide]
efflux ratio at 120 min, 2 μM [1]: 23
IC50 [2, 3]: 0.5 nM
IC50 [2, 5]: 1 nM
IC50 [2, 4]: 21 nM

Nc1nc2c(sc(=O)n2CCN2CCN(c3ccc(OCC4COCCN4)cc3F)CC2)c2nc(-c3ccco3)nn12 (stereo not drawn) [Compound 99, 5-amino-3-(2-(4-(2-fluoro-4-(morpholin-3-ylmethoxy)phenyl)piperazin-1-yl)ethyl)-8-(furan-2-yl)thiazolo[5,4-e][1,2,4]triazolo[1,5-c]pyrimidin-2(3H)-one]
efflux ratio at 120 min, 2 μM [1]: 13
IC50 [2, 3]: 0.5 nM
IC50 [2, 4]: 64 nM
